Source: publication PMC4929936, “Isoform-specific modulation of the chemical sensitivity of conserved TRPA1 channel in the major honeybee ectoparasitic mite, Tropilaelaps mercedesae” (Open Biology, 2016)

What was measured:
[1] = biological target: T1, TmTRPA1b (Tropilaelaps mercedesae, UniProt A0A193PK79); assay: Fura-2 calcium imaging, HEK293; format: cell-based; details: pH 7.4, 2 mM CaCl2
T1 construct: gene TRPA1; full-length, untagged, transiently expressed in HEK293 cells; expected 143 kD; 15 ankyrin repeats
T1 sequence (A0A193PK79 1-1258): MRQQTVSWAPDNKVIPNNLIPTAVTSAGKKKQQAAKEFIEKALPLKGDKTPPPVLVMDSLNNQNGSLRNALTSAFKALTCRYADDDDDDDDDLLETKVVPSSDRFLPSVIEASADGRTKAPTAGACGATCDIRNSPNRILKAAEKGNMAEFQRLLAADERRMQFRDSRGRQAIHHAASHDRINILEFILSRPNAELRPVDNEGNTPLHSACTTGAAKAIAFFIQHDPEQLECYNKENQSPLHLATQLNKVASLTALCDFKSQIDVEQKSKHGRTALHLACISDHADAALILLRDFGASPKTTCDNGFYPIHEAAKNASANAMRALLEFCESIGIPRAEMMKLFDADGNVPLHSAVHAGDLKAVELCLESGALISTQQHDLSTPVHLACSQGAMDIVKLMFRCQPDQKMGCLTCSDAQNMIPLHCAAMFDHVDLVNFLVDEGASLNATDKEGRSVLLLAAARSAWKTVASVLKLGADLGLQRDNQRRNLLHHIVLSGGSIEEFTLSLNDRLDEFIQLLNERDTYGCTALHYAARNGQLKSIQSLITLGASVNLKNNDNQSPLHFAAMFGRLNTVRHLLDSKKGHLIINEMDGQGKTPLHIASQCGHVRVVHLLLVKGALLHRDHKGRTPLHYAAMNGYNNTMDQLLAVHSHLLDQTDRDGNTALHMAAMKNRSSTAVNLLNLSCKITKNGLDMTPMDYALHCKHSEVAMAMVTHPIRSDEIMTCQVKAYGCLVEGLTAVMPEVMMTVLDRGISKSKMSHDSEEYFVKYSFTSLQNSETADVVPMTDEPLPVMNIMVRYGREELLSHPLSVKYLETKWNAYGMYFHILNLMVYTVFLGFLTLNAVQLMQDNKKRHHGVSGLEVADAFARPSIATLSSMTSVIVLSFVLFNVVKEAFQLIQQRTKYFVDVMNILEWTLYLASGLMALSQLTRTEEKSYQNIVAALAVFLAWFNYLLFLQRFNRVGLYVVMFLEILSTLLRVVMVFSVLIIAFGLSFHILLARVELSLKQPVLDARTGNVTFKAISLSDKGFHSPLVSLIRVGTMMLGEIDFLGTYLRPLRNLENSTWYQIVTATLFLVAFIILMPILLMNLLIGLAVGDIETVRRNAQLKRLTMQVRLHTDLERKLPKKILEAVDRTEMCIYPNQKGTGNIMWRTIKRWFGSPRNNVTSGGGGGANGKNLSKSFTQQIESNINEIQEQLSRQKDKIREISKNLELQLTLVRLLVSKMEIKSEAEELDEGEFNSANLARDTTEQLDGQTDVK

[2] = biological target: T2, TmTRPA1a (Tropilaelaps mercedesae, UniProt A0A193PK31); assay: Fura-2 calcium imaging, HEK293; format: cell-based; details: activator, pH 7.4, 2 mM CaCl2
T2 construct: gene TRPA1; full-length, untagged, transiently expressed in HEK293 cells; expected 134 kD; 15 ankyrin repeats
T2 sequence (A0A193PK31 1-1172): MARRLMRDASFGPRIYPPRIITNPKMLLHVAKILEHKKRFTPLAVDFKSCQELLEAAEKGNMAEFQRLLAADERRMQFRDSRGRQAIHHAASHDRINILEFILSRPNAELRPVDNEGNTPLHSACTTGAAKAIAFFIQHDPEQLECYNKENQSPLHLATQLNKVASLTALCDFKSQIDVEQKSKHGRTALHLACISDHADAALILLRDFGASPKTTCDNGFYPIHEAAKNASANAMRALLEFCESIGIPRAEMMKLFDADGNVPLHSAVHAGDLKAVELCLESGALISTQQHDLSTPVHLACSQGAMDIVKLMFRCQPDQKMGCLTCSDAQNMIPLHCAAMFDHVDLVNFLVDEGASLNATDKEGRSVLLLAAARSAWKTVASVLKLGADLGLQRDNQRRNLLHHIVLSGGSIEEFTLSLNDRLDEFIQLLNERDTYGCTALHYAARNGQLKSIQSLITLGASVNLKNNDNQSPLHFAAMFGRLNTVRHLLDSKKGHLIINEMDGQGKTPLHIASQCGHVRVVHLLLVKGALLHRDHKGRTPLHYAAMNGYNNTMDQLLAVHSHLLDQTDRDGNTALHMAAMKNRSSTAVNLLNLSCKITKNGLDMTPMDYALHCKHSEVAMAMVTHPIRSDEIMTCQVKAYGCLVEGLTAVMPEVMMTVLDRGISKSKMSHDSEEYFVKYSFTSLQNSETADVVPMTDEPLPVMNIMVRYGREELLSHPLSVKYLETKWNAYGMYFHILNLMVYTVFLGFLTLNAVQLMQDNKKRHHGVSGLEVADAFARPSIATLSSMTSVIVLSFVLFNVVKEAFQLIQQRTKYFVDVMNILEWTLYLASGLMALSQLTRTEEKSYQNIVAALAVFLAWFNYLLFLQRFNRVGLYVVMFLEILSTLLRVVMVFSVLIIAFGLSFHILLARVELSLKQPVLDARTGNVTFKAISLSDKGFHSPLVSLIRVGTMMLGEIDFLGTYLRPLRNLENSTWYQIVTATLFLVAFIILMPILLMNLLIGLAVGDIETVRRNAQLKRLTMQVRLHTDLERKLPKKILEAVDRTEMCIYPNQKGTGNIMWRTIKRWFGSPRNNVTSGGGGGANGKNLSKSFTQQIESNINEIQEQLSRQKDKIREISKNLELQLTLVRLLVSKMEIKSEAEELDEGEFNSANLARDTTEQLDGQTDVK
Text: Fura-2 calcium imaging, HEK293 on TmTRPA1a | only six of the compounds activated TmTRPA1a.

**Q.** How did the “Fura-2 calcium imaging, HEK293” value ([1]; 1 mM, activator) turn out when CC12CCC(CC1)C(C)(C)O2 [1,8-cineole] was run?
**A.** We observed robust activation of TmTRPA1b by eight representative plant-derived compounds

**Q.** Which results are given for CCCCCCCCCC(C)=O [2-undecanone]?
**A.** Fura-2 calcium imaging, HEK293 ([2]; 1 mM): only six of the compounds activated TmTRPA1a. These are nerol, 2-undecanone, carvacrol; Fura-2 calcium imaging, HEK293 ([1]; 1 mM, activator): We observed robust activation of TmTRPA1b by eight representative plant-derived compounds

**Q.** For C=CCN=C=S [allyl isothiocyanate], which “Fura-2 calcium imaging, HEK293” value ([1]; 1 mM, electrophilic activator) is on record?
**A.** allyl isothiocyanate (AITC), cinnamaldehyde (CA) and diallyl disulfide also activate TmTRPA1b

**Q.** Cc1ccc(C(C)C)cc1O [carvacrol] was tested. Which “Fura-2 calcium imaging, HEK293” value ([2]; 0.5 mM) did it give?
**A.** only six of the compounds activated TmTRPA1a. These are nerol, 2-undecanone, carvacrol

**Q.** What about the “Fura-2 calcium imaging, HEK293” value ([1]; 0.5 mM, activator) of the same compound?
**A.** We observed robust activation of TmTRPA1b by eight representative plant-derived compounds

**Q.** For O=CC=Cc1ccccc1 [cinnamaldehyde], which “Fura-2 calcium imaging, HEK293” value ([1]; 1 mM, electrophilic activator) is on record?
**A.** allyl isothiocyanate (AITC), cinnamaldehyde (CA) and diallyl disulfide also activate TmTRPA1b

**Q.** C=CCSSCC=C [diallyl disulfide] was tested. Which “Fura-2 calcium imaging, HEK293” value ([1]; 1 mM, electrophilic activator) did it give?
**A.** allyl isothiocyanate (AITC), cinnamaldehyde (CA) and diallyl disulfide also activate TmTRPA1b

**Q.** With C=CCc1ccc(O)c(OC)c1 [eugenol] as the compound, how does the “Fura-2 calcium imaging, HEK293” value ([2]; 1 mM) read?
**A.** These are nerol, 2-undecanone, carvacrol, geranylacetone, eugenol and terpinen-4-ol

**Q.** Which results are given for CC(=O)CC/C=C(\C)CCC=C(C)C [geranylacetone]?
**A.** Fura-2 calcium imaging, HEK293 ([2]; 0.5 mM): These are nerol, 2-undecanone, carvacrol, geranylacetone, eugenol and terpinen-4-ol; Fura-2 calcium imaging, HEK293 ([1]; 0.5 mM, activator): We observed robust activation of TmTRPA1b by eight representative plant-derived compounds

**Q.** With CC/C=C\C[C@H]1C(=O)CC[C@@H]1CC(=O)OC [methyl jasmonate] as the compound, how does the “Fura-2 calcium imaging, HEK293” value ([1]; 1 mM, activator) read?
**A.** We observed robust activation of TmTRPA1b by eight representative plant-derived compounds

**Q.** Which “Fura-2 calcium imaging, HEK293” value ([2]; 1 mM (Figure 5 legend; Methods state 0.5 mM)) does the source give for CC(C)=CCC/C(C)=C\CO [nerol] here?
**A.** only six of the compounds activated TmTRPA1a. These are nerol, 2-undecanone, carvacrol

**Q.** What about the “Fura-2 calcium imaging, HEK293” value ([1]; 0.5 mM, activator) of the same compound?
**A.** We observed robust activation of TmTRPA1b by eight representative plant-derived compounds

**Q.** For CC1=CCC(O)(C(C)C)CC1 (centres unmarked) [terpinen-4-ol], which “Fura-2 calcium imaging, HEK293” value ([2]; 1 mM) is on record?
**A.** These are nerol, 2-undecanone, carvacrol, geranylacetone, eugenol and terpinen-4-ol

**Q.** For CC1=CCC(C(C)(C)O)CC1 (stereo not drawn) [α-terpineol], which “Fura-2 calcium imaging, HEK293” value ([1]; 1 mM, activator) is on record?
**A.** We observed robust activation of TmTRPA1b by eight representative plant-derived compounds

**Q.** For CC(C)=CCCC(C)CCO (stereo not drawn) [β-citronellol], which “Fura-2 calcium imaging, HEK293” value ([1]; 1 mM, activator) is on record?
**A.** We observed robust activation of TmTRPA1b by eight representative plant-derived compounds
